According to US7485721B2, “Substituted porphyrins” (Duke University, priority 2002, dated 2009):

What was measured:
[1] = Mn loss from Mn porphyrins in 12 M HCl; assay type: physicochemical
Experimental: The half-lives for the acid and anion-catalyzed removal of zinc from Zn N-methylated derivatives^35 in 1.0 M HNO3 were 89 s for the meta, 165 s for the para, and 19 hours for the ortho ZnTM-2-PyP^4+. […] In addition to porphyrin ring distortion,^29-32 the steric hindrance and solvation effects imposed by the progressively longer alkyl chains may also contribute to the differences in metaladon/demetalation behavior.

[2] = Thin-layer chromatography, retention factor Rf as lipophilicity; assay type: physicochemical; settings: silica gel TLC plates, 1:1:8 KNO3-saturated H2O:H2O:acetonitrile; for Rf (compound path/solvent path): Mn(III) complex; for Rf (compound path/solvent path), metal-free porphyrin (in parentheses): corresponding metal-free porphyrin H2T(alkyl)-2-PyP^4+
Text: Thin-layer chromatography. All ligands and their Mn(III) complexes were chromatographed on silica gel TLC plates using 1:1:8 KNO3-saturated H2O:H2O: acetonitrile. The atropoisomers could not be separated for the methyl^19 and ethyl analogues,^24 they begin to separate for the n-propyl and n-butyl species and were clearly resolved with the n-hexyl and n-octyl compounds.
Thin Layer Chromatography. The increase in the length of the alkyl chains is accompanied by an increase in the lipophilicity of the compounds as indicated by the increase in the retention factor Rf (porphyrin path/solvent path) (Table 1, FIG. 2). […] As the chains lengthen, their contribution to the overall lipophilicity increases, and eventually the n-octyl porphyrin and its Mn(III) complex are more alike in Rf than are methyl analogues.

[3] = Spectrophotometric proton dissociation constant pKa2; assay type: physicochemical; settings: of the metal-free porphyrin H2T(alkyl)-2-PyP^4+; 25° C., ionic strength 0.10 (NaNO3/NaOH)
Experimental: Uv/vis spectroscopy. The uv/vis spectra were taken on a Shimadzu UV-2501 PC spectrophotometer at 25° C. The proton dissociation constants (pKa2), were determined spectrophotometrically at 25° C., at an ionic strength of 0.1 M (NaOH/NaNO3), as previously described.^4
The proton dissociation constants, Ka2 and Ka3 are defined as follows: H2P^4+ ? HP^3++H^+Ka2 [1] H3P^5+ ? H2P^4++H^+ Ka3 [2] As the alkyl chains lengthen the porphyrins become less hydrated and the separation of charges (eq) becomes less favorable, ie. pKa2 increases (FIG. 3 insert).

[4] = Catalysis of O2^− dismutation, cytochrome c assay (xanthine/xanthine oxidase); assay type: biochemical; settings: 0.05 M phosphate buffer, pH 7.8, (25 ± 1) ° C.
Text: Catalysis of O2^− dismutation. We have previously shown that the O2^− /cytochrome c reduction assay gives the same catalytic rate constants as does pulse radiolysis for Mn^IIITE-2-PyP^5+, {Mn^IIIBVDME}2, {Mn^IIIBV}2 and MnCl2.^21 Therefore the convenient cytochrome c assay was used to characterize the series of Mn(III) N-alkylpyridylporphyrins. The xanthine/xanthine oxidase reaction was the source of O2^− and ferricytochrome c was used as the indicating scavenger for O2^−.^22 The reduction of cytochrome c was followed at 550 nm. Assays were conducted at (25±1) ° C., in 0.05 M phosphate buffer, pH 7.8, 0.1 mM EDTA, in the presence and absence of 15 μg/mL of catalase. Rate constants for the reaction of metalloporphyrins with O2′^− were based upon competition with 10 μM cytochrome c, kcyt c=2.6×10^5 M^−1 s^−1 as described elsewhere.^21 The O2^− was produced at the rate of 1.2 μM per minute. Any possible interference through inhibition of the xanthine/xanthine oxidase reaction by the test compounds was examined by following the rate of urate accumulation at 295 nm in the absence of cytochrome c. No reoxidation of cytochrome c by the metalloporphyrins was observed
Catalysis of O2^− dismutation. […] All of the manganese compounds are potent catalysts of O2^− dismutation with log kcat between 7.79 and 7.25.

[5] = Stability of reduced Mn(II) porphyrins in excess ascorbic acid; settings: aerobic, within 125 min; 6 μM, 70-fold excess of ascorbic acid, pH 7.8, 0.1 M tris buffer; reduced Mn(II) form
Experimental: Therefore, we also examined the behavior of the reduced and more biologically relevant Mn^IIT(alkyl)-2-PyP^4+ compounds. We compared the methyl, n-hexyl and n-octyl derivatives (6 μM) aerobically and anaerobically in the presence of a 70-fold excess of ascorbic acid (pH 7.8, 0.1 M tris buffer) and in the presence and absence of a 150-fold excess of EDTA.

[6] = Cyclic voltammetry, metal-centered redox potential E1/2 of Mn(III)/Mn(II) couple; assay type: physicochemical; settings: 0.05 M phosphate buffer (pH 7.8, 0.1 M NaCl)
Experimental: Electrochemistry. Measurements were performed on a CH Instruments Model 600 Voltammetric Analyzer.^3.4 A three-electrode system in a small volume cell (0.5 mL to 3 mL), with a 3 mm-diameter glassy carbon button working electrode (Bioanalytical Systems), plus the Ag/AgCl reference and Pt auxilliary electrodes was used. Solutions contained 0.05 M phosphate buffer, pH 7.8, 0.1 M NaCl, and […] metalloporphyrin. The scan rates were 0.01-0.5 V/s, typically 0.1 V/s. The potentials were standardized against the potassium ferrocyanide/ferricyanide^20 and/or against Mn^IIITE-2-PyP^5+. All voltammograms were reversible.
Electrochemistry. […] The metal-centered redox potentials, E1/2 are in Table 1 and the representative voltammograms of the Mn^III/IITE-2-PyP^5+/4+ and Mn^III/IITnHex-2-PyP^5+/4+ compounds are shown in the Supporting Material, FIG. 6. Both lipophilicity (FIG. 2B) and E1/2 (FIG. 3B, insert) increase exponentially with the number of CH2 groups in the alkyl chains. Consequently, the increase in E1/2 is a linear function of Rf (FIG. 3B).

[7] = equilibrium H3P^5+ = H2P^4+ + H^+; cited from earlier work
[8] = stroke, diabetes, sickle cell disease, cancer/radiation; cited from earlier work
[9] = system: SOD-deficient Escherchia coli; settings: aerobic conditions; cited from earlier work
[10] = 1.0 M HNO3, within a week; cited from earlier work
[11] = kcat=kred=kox; cited from earlier work

Molecule	Rf (compound path/solvent path) [2]	Rf (compound path/solvent path), metal-free porphyrin (in parentheses) [2]	pKa2 [3]	log kcat [4]	degradation of Mn(II) porphyrin [5]	E1/2 [6]	other results
CCCCCC[n+]1ccccc1-c1c2nc(c(-c3cccc[n+]3CCCCCC)c3ccc([nH]3)c(-c3cccc[n+]3CCCCCC)c3nc(c(-c4cccc[n+]4CCCCCC)c4ccc1[nH]4)C=C3)C=C2.[Mn+3] [Mn^IIITnHex-2-PyP^5+]	0.57	0.63	12.2	7.48	none	+314 mV vs NHE	spectral change (Mn loss) ([1]; solid dissolved in 12 M HCl, 3 months): the spectra did not change within 3 months
CCCCCCCC[n+]1ccccc1-c1c2nc(c(-c3cccc[n+]3CCCCCCCC)c3ccc([nH]3)c(-c3cccc[n+]3CCCCCCCC)c3nc(c(-c4cccc[n+]4CCCCCCCC)c4ccc1[nH]4)C=C3)C=C2.[Mn+3] [Mn^IIITnOct-2-PyP^5+]	0.80	0.86	13.2	7.71	none	+367 mV vs NHE	–
C[n+]1cccc(-c2c3nc(c(-c4ccc[n+](C)c4)c4ccc([nH]4)c(-c4ccc[n+](C)c4)c4nc(c(-c5ccc[n+](C)c5)c5ccc2[nH]5)C=C4)C=C3)c1 [H2TM-3-PyP^4+]	–	–	–	–	–	–	pKa3 [7]: 1.8
CCCC[n+]1ccccc1-c1c2nc(c(-c3cccc[n+]3CCCC)c3ccc([nH]3)c(-c3cccc[n+]3CCCC)c3nc(c(-c4cccc[n+]4CCCC)c4ccc1[nH]4)C=C3)C=C2.[Mn+3] [Mn^IIITnBut-2-PyP^5+]	0.33	0.46	11.7	7.25	–	+254 mV vs NHE	–
C[n+]1ccc(-c2c3nc(c(-c4cc[n+](C)cc4)c4ccc([nH]4)c(-c4cc[n+](C)cc4)c4nc(c(-c5cc[n+](C)cc5)c5ccc2[nH]5)C=C4)C=C3)cc1 [H2TM-4-PyP^4+]	–	–	–	–	–	–	pKa3 [7]: 1.4
meso tetrakis(N-ethylpyridinium-2-yl)porphyrins [Mn^IIITE-2-PyP^5+]	0.13	0.21	10.9	7.76	–	+228 mV vs NHE	protection in rodent models of oxidative stress [8]: offer protection in rodent models of oxidative stress; growth of SOD-deficient E. coli [9]: allow SOD-deficient Escherchia coli to grow under aerobic conditions
C[n+]1ccccc1-c1c2nc(c(-c3cccc[n+]3C)c3ccc([nH]3)c(-c3cccc[n+]3C)c3nc(c(-c4cccc[n+]4C)c4ccc1[nH]4)C=C3)C=C2.[Mn+3] [Mn^IIITM-2-PyP^5+, Mn(III) meso tetrakis(N-methylpyridinium-2-yl)porphyrin]	0.09	0.13	10.9	7.79	−40%	+220 mV vs NHE	Mn lost ([1]; 12 M HCl, within a month): over 50%; protection in rodent models of oxidative stress [8]: offer protection in rodent models of oxidative stress; growth of SOD-deficient E. coli [9]: allow SOD-deficient Escherchia coli to grow under aerobic conditions
CCCCCC[n+]1ccccc1-c1c2nc(c(-c3cccc[n+]3CCCCCC)c3ccc([nH]3)c(-c3cccc[n+]3CCCCCC)c3nc(c(-c4cccc[n+]4CCCCCC)c4ccc1[nH]4)C=C3)C=C2.[Zn+2] [ZnTnHex-2-PyP^4+]	–	–	–	–	–	–	zinc loss [10]: No indication of zinc loss was found within a week
CuZn—SOD: CuZn superoxide dismutase enzyme	–	–	–	–	–	–	kcat [11]: 2e+09 M⁻¹ s⁻¹
